# Results reported in patent US20160296586A1, “AGENT FOR PREVENTING OR AM[…] ENDOTHELIAL MALFUNCTION” (KYOWA HAKKO BIO CO., LTD., priority 2012, published 2016).
# Tested on: normal human umbilical vein endothelial cell (HUVEC)
# Test: NO production: nitrite (NO2) in HUVEC culture supernatant by HPLC
# Assay type: cell-based
# Conditions: 24-hour culture, vs control (PBS), FIG. 1
# Method: A normal human umbilical vein endothelial cell (HUVEC) line available from Clonetics (SanDiego, Calif., USA) was used with EGM-2 Bullet Kit medium containing 2% FBS (Takara Bio). The cells were cultured in at 37° C., in 5% CO2 incubator, and used for experiment after 4 to 6 passages. Citrulline and reduced glutathione were obtained from Kyowa Hakko Bio.
# A cell suspension (0.45 mL) with the adjusted initial cell combination of 5×10^5 cells/mL was inoculated in a 24-well plate (IWAKI). After 40-hour culture, the media were replaced with those containing citrulline (final concentration 0.3 mM; citrulline group), reduced glutathione (final concentration 1 mM: high-dose glutathione group), and a citrulline and reduced glutathione mixture (citrulline final concentration 0.3 mM; glutathione final concentration 0.3 mM; citrulline+low -dose glutathione group). Media with the sole addition of solvent (PBS) were used as a control group. After 24-hour culture, the cell culture (100 μL) was centrifuged at 12,000 rpm for 10 minutes, and the concentration of nitrite (NO2), which is the stable NO metabolite, in culture supernatant was quantified by HPLC (ENO-20, EICOM).
SMILES,effect on NO production (nitrite NO2 concentration in medium) (reduced glutathione final concentration 1 mM (high-dose)),effect on NO production (nitrite NO2 concentration in medium) (citrulline final concentration 0.3 mM)
"N[C@@H](CCC(=O)N[C@@H](CS)C(=O)NCC(=O)O)C(=O)O [glutathione, reduced glutathione]",no effect on NO production,
NC(=O)NCCC[C@H](N)C(=O)O [citrulline],,no effect on NO production
